Assay results taken from ChEMBL document CHEMBL1156829 (Proc Natl Acad Sci U S A, 2008).
Where “and” joins values, the source holds several entries; their conditions need not be identical. Equal entries are not always repeated.

Legend:
Plasmodium falciparum [1] = experiment: NOVARTIS: Inhibition of Plasmodium falciparum 3D7 (drug-susceptible) proliferation in erythrocyte-based infection assay; format: functional, organism-based
Plasmodium falciparum [2] = experiment: NOVARTIS: Inhibition of Plasmodium falciparum W2 (drug-resistant) proliferation in erythrocyte-based infection assay; format: functional, organism-based; details: read-out: EC50
[3] = (§1) NOVARTIS: Cytotoxicity against human hepatocellular carcinoma cell line (Huh7); format: toxicity, cell-based, Huh-7; details: Huh7 cells (hepatocellular carcinoma cell line)
Huh-7 = experiment: as §1; format: toxicity, cell-based; details: huh-7, read-out: CC50

Row | SMILES | EC50 (Plasmodium falciparum [1]) | EC50 (Plasmodium falciparum [1]; Plasmodium falciparum, 3D7) [nM] | EC50 (Plasmodium falciparum [2]) | CC50 [3] [µM] | CC50 (Huh-7) [µM] | EC50 (Plasmodium falciparum [2]; Plasmodium falciparum, W2) [nM]
1 | CCN1/C(=C/c2ccc3cc(OC)ccc3[n+]2CC)Sc2cc(C)ccc21 | 90.7 nM | 161 | 275 nM and 86.2 nM | 19.2 | 11.7 | –
2 | CCN1/C(=C/C=C/c2oc3ccc(-c4ccccc4)cc3[n+]2CC)Oc2ccc(-c3ccccc3)cc21 | – | > 1720 | > 569 nM | > 10 | 10.7 | 1060
3 | CCN1C(=Cc2sc3ccc(O)cc3[n+]2CC)C=Cc2cc(C)ccc21 | 188 nM and 376 nM | – | 383 nM | 5.79 | > 10 | 291
4 | CCN1/C(=C/c2ccc3ccccc3[n+]2CC)Sc2c1ccc1ccccc21 | 225 nM and 631 nM and 334 nM | – | 682 nM and > 621 nM and 212 nM | > 10 | 7.14 | –
5 | CCN(CC)c1ccc(C=Cc2cc[n+](Cc3ccc(F)cc3)cc2)cc1 | 417 nM | 241 | 578 nM | 5.29 | > 10 | 769
6 | COc1ccc(C=C2SC(Nc3ccc(F)cc3)=NC2=O)c(OC)c1 | 277 nM | 266 | 532 nM | 12.2 | 12 | 753
7 | CCN1C(=Cc2sc3ccc(OC)cc3[n+]2CC)C=Cc2ccccc21 | 20.4 nM | – | 208 nM | – | 24.8 | –
8 | CCn1c(C=CN(C(C)=O)c2ccccc2)[n+](CC)c2cc(Cl)ccc21 | 2590 nM | – | 1580 nM | – | > 100 | –
9 | CC[n+]1c(C=CN(C)c2ccccc2)sc2ccc(OC)cc21.[O-][Cl+3]([O-])([O-])[O-] | – | 145 | – | – | > 100 | 255
10 | Cc1cc(/C=C2\Sc3ccccc3N2C)[n+](C)c2ccccc12 | 90.6 nM and 39.2 nM | – | 80.2 nM | 6.37 | 11.5 | 94
11 | C=CC[n+]1c(C=C2C=CC=CN2C)sc2ccccc21 | – | 491 | > 1010 nM | – | > 10 | –
12 | CN(C)c1ccc(C=CC=Cc2cccc[n+]2C)cc1.[O-][Cl+3]([O-])([O-])[O-] | – | 283 | – | – | > 100 | 178
13 | CN1/C(=C/c2cccc[n+]2C)Sc2ccccc21 | 230 nM | 138 | 293 nM | – | > 100 | 223
